Experiments:
[1] = test system: mouse; conditions: equivalent of mouse LD10; ref EORTC-NDDO, 1992; cited from earlier work
[2] = test system: granulocytes (ANC), white blood cells (WBC), platelets; test: Pharmacokinetic-pharmacodynamic relationship of bone marrow toxicity (%decr vs AUC); type: in vivo
Source text: Carzelesin (U-80,244, Figure 1A) is a cyclopropylpyrroloindole (CPI) prodrug analogue of CC-1065. […] CPI drugs are a class of compounds with unique DNA interactive properties. These agents fit into the minor groove region of DNA, and the CPI function in the molecule mediates a covalent binding to the N3 position of adenine in A-T rich regions, thus forming DNA adducts in a sequence selective fashion (Hurley et al, 1984; Reynolds et al, 1985). Three new CPIs have now been developed. […] Bizelesin differs from the classical CPI drugs in that it contains two chloromethyl functions, which are both converted (via intramolecular rearrangements) to the CPI alkyl- ating species that interact with DNA. Consequently, this agent is capable of forming DNA interstrand cross-links (Lee et al, 1991). […] Therefore, efforts were directed to modu- late the alkylation rate by the preparation of CPI prodrugs that would require chemical or enzymatic conversion. The activation of Carzelesin is a two-step reaction with hydrolysis of the phenyl- urethane substituent to form the intermediate compound U-76,073, followed by ring closure to form the active product U-76,074 (Figure 1B). […] This higher efficacy may be related to the pharmacologic features of the compound. […] Phase I study of Carzelesin (U-80,244) given (4-weekly) by intravenous bolus schedule A Awada1, CJA Punt2, MJ Piccart1, O Van Tellingen3, L Van Manen2, J Kerger1, Y Groot4, J Wanders4, J Verweij5 and DJTh Wagener2 1Institut Jules Bordet, Bd de Waterloo 125, 1000 Brussels, Belgium; 2University Hospital, Geert Grooteplein 8, Box 9101, 6500 HB Nijmegen, The Netherlands; 3The Netherlands Cancer Institute (Antoni van Leeuwenhoek Huis), Plesmanlaan 121, 1066 CX Amsterdam, The Netherlands; 4European Organization for Research and Treatment of Cancer - New Drug Development Office, PO Box 7057, Amsterdam, The Netherlands; 5Rotterdam Cancer Institute, Groene Hilledijk 301, 3075 EA Rotterdam, The Netherlands; on behalf of the EORTC Early Clinical Studies Group and EORTC NDDO Summary Carzelesin is a cyclopropylpyrroloindole analogue which acts as a DNA-sequence-specific alkylating agent. In this phase I study, Carzelesin was given as a 4-weekly 10 min IV infusion to 51 patients with advanced solid tumours. Patients received a median of two courses (range 1-5) at one of nine dose levels: […]. According to NCI-CTC criteria, non- haematological toxicities (grade 1/2) included fever, nausea and vomiting, mucositis and anorexia, none of which was clearly dose related. […] The concentration of U-76,074 (active metabolite) extended above the lower limit of quantitation (1 ng ml-1) for short periods of time and only at the higher dose levels. […]

[3] = test system: solid tumours; test: Antitumour activity (WHO response criteria); type: in vivo, human; conditions: 51 patients, eight not evaluable
Source text: (§1) Carzelesin (U-80,244, Figure 1A) is a cyclopropylpyrroloindole (CPI) prodrug analogue of CC-1065. […] CPI drugs are a class of compounds with unique DNA interactive properties. These agents fit into the minor groove region of DNA, and the CPI function in the molecule mediates a covalent binding to the N3 position of adenine in A-T rich regions, thus forming DNA adducts in a sequence selective fashion (Hurley et al, 1984; Reynolds et al, 1985). Three new CPIs have now been developed. […] Bizelesin differs from the classical CPI drugs in that it contains two chloromethyl functions, which are both converted (via intramolecular rearrangements) to the CPI alkyl- ating species that interact with DNA. Consequently, this agent is capable of forming DNA interstrand cross-links (Lee et al, 1991). […] Therefore, efforts were directed to modu- late the alkylation rate by the preparation of CPI prodrugs that would require chemical or enzymatic conversion. The activation of Carzelesin is a two-step reaction with hydrolysis of the phenyl- urethane substituent to form the intermediate compound U-76,073, followed by ring closure to form the active product U-76,074 (Figure 1B). […] The concentration of U-76,074 (active metabolite) extended above the lower limit of quantitation (1 ng ml-1) for short periods of time and only at the higher dose levels. […]

[4] = Ex vivo conversion in blood samples; type: in vitro ADME, human; conditions: if the sample is not immediately cooled in ice-water
Source text: as §1

CCN(CC)c1ccc2cc(C(=O)Nc3ccc4[nH]c(C(=O)N5C[C@@H](CCl)c6c5cc(OC(=O)Nc5ccccc5)c5[nH]cc(C)c65)cc4c3)oc2c1 [Carzelesin]
MELD10 [1]: 840 g m-2 | AUC in other patients with marked toxicity ([2]; human, in vivo): less than 20 ng ml.h-1 | highest AUC observed in this series ([2]; patient at 300 with only very modest toxicity): 43.2 ng·mL/h | %decr in ANC ([2]; second course, exception patient treated at 300): 82% | patients with progressive disease as best overall response [3]: Thirty-four patients | patients with stable disease as best overall response [3]: nine patients | stability in blood sample ex vivo [4]: readily converted to U-76,074 ex vivo
